According to US8722903B2, “Indazole derivatives for the treatment of HSP9O-induced diseases” (Merck Patent GmbH, priority 2006, dated 2014):

These compounds were tested against T1, Recombinant human HSP90α (Homo sapiens, UniProt P07900) (assay: Radioligand filter binding test: competitive inhibition of [3H]17AAG binding to HSP90). Details: [3H]17AAG 0.08 μM, HSP90 1.5 μg/assay, 22° C., 30 min.
T1 construct: host or cells: E. coli
Description: In the specific case, a radioligand filter binding test is used. The radioligand used here is tritium-labelled 17-allylaminogeldanamycin, [3H]17AAG, This filter binding test allows a targeted search for inhibitors which interfere with the ATP binding site.
Recombinant human HSP90α (E. coli expressed, 95% purity);
HEPES filter buffer (50 mM HEPES, pH 7.0, 5 mM MgCl2, BSA 0.01%) Multiscreen FB (1 μm) filter plate (Millipore, MAFBNOB 50).
The 96-well microtitre filter plates are firstly irrigated and coated with 0.1% of polyethylenimine.
The test is carried out under the following conditions:
Reaction temperature 22° C.
Reaction time: 30 min., shaking at 800 rpm
50 mM HEPES HCl, pH 7.0, 5 mM MgCl2, 0.01% (w/v) of BSA
At the end of the reaction, the supernatant in the filter plate is removed by suction with the aid of a vacuum manifold (Multiscreen Separation System, Millipore), and the filter is washed twice.
The filter plates are then measured in a beta counter (Microbeta, Wallac) with scintillator (Microscint 20, Packard).
“% of control” is determined from the “counts per minutes” values, and the IC-50 value of a compound is calculated therefrom.

| Compound | IC50 [nM] |
| --- | --- |
| 5-[N-(3-Methoxybenzyl)-N-methylaminocarbonyl]-3-benzyl-6-hydroxy-1H-indazole [Compound A27] | 10 to 1000 |
| CCCN(C)C(=O)c1cc2c(Cc3ccccc3)n[nH]c2cc1O [Compound A4, 5-(N-propyl-N-methylaminocarbonyl)-3-benzyl-6-hydroxy-1H-indazole] | 1000 to 10000 |
| CN(Cc1ccccc1)C(=O)c1cc2c(Cc3ccccc3)n[nH]c2cc1O [Compound A6, 5-(N-Benzyl-N-methylaminocarbonyl)-3-benzyl-6-hydroxy-1H-indazole] | 10 to 1000 |
| COCCN(C)C(=O)c1cc2c(Cc3ccccc3)n[nH]c2cc1O [Compound A7, 5-[N-(2-Methoxyethyl)-N-methylaminocarbonyl]-3-benzyl-6-hydroxy-1H-indazole] | 1000 to 10000 |
| CN(Cc1cccc(Cl)c1)C(=O)c1cc2c(Cc3ccccc3)n[nH]c2cc1O [Compound A10, 5-[N-(3-Chlorobenzyl)-N-methylaminocarbonyl]-3-benzyl-6-hydroxy-1H-indazole] | 1000 to 10000 |
| COc1ccc(C)cc1CN(C)C(=O)c1cc2c(Cc3ccccc3)n[nH]c2cc1O [Compound A20, 5-[N-(2-Methoxy-5-methylbenzyl)-N-methylaminocarbonyl]-3-benzyl-6-hydroxy-1H-indazole] | 1000 to 10000 |
| COc1cccc(CN(C)C(=O)c2cc3c(Cc4ccccc4)n[nH]c3cc2O)c1OC [Compound A23, 5-[N-(2,3-Dimethoxybenzyl)-N-methylaminocarbonyl]-3-benzyl-6-hydroxy-1H-indazole] | 10 to 1000 |
| CCCCN(C)C(=O)c1cc2c(Cc3cccc(C)c3)n[nH]c2cc1O [Compound A25, 5-(N-Butyl-N-methylaminocarbonyl)-3-(3-methylbenzyl)-6-hydroxy-1H-indazole] | 10 to 1000 |
| CN(Cc1cccc(Br)c1)C(=O)c1cc2c(Cc3ccccc3)n[nH]c2cc1O [Compound A26, 5-[N-(3-Bromobenzyl)-N-methylaminocarbonyl]-3-benzyl-6-hydroxy-1H-indazole] | 1000 to 10000 |
| CCc1ccc(CN(C)C(=O)c2cc3c(Cc4ccccc4)n[nH]c3cc2O)cc1 [Compound A28, 5-[N-(4-Ethylbenzyl)-N-methylaminocarbonyl]-3-benzyl-6-hydroxy-1H-indazole] | 10 to 1000 |
| CN(Cc1cccc(C(F)(F)F)c1)C(=O)c1cc2c(Cc3ccccc3)n[nH]c2cc1O [Compound A29, 5-[N-(3-Trifluoromethylbenzyl)-N-methylaminocarbonyl]-3-benzyl-6-hydroxy-1H-indazole] | 1000 to 10000 |
| CN(Cc1cccc2c1OCO2)C(=O)c1cc2c(Cc3ccccc3)n[nH]c2cc1O [Compound A30, 5-[N-(Benzo-1,3-dioxol-4-ylmethyl)-N-methylaminocarbonyl]-3-benzyl-6-hydroxy-1H-indazole] | 1000 to 10000 |
| COc1ccc(Cl)cc1CN(C)C(=O)c1cc2c(Cc3ccccc3)n[nH]c2cc1O [Compound A31, 5-[N-(3-Chloro-6-methoxybenzyl)-N-methylaminocarbonyl]-3-benzyl-6-hydroxy-1H-indazole] | 1000 to 10000 |
| CN(Cc1ccccc1)C(=O)c1cc2c(Cc3ccccc3Cl)n[nH]c2cc1O [Compound A32, 5-(N-Benzyl-N-methylaminocarbonyl)-3-(2-chlorobenzyl)-6-hydroxy-1H-indazole] | 1000 to 10000 |
| CCCCN(C)C(=O)c1cc2c(Cc3ccccc3Cl)n[nH]c2cc1O [Compound A33, 5-(N-Butyl-N-methylaminocarbonyl)-3-(2-chlorobenzyl)-6-hydroxy-1H-indazole] | 1000 to 10000 |
| COCCN(C)C(=O)c1cc2c(Cc3ccccc3Cl)n[nH]c2cc1O [Compound A34, 5-[N-(2-Methoxyethyl)-N-methylaminocarbonyl]-3-(2-chlorobenzyl)-6-hydroxy-1H-indazole] | > 10000 |
| CCCN(C)C(=O)c1cc2c(Cc3ccccc3Cl)n[nH]c2cc1O [Compound A35, 5-(N-Propyl-N-methylaminocarbonyl)-3-(2-chlorobenzyl)-6-hydroxy-1H-indazole] | 1000 to 10000 |
| COCCN(C)C(=O)c1cc2c(Cc3cccc(C)c3)n[nH]c2cc1O [Compound A37, 5-[N-(2-Methoxyethyl)-N-methylaminocarbonyl]-3-(3-methylbenzyl)-6-hydroxy-1H-indazole] | 1000 to 10000 |
| CCCN(C)C(=O)c1cc2c(Cc3cccc(C)c3)n[nH]c2cc1O [Compound A38, 5-(N-Propyl-N-methylaminocarbonyl)-3-(3-methylbenzyl)-6-hydroxy-1H-indazole] | 1000 to 10000 |
| CCCCN(C)C(=O)c1cc2c(Cc3cccc(Cl)c3)n[nH]c2cc1O [Compound A39, 5-(N-Butyl-N-methylaminocarbonyl)-3-(3-chlorobenzyl)-6-hydroxy-1H-indazole] | 10 to 1000 |

| Compound | IC50 [nM] |
| --- | --- |
| CN(Cc1ccccc1)C(=O)c1cc2c(Cc3cccc(Cl)c3)n[nH]c2cc1O [Compound A40, 5-(N-Benzyl-N-methylaminocarbonyl)-3-(3-chlorobenzyl)-6-hydroxy-1H-indazole] | 10 to 1000 |
| COCCN(C)C(=O)c1cc2c(Cc3cccc(Cl)c3)n[nH]c2cc1O [Compound A41, 5-[N-(2-Methoxyethyl)-N-methylaminocarbonyl]-3-(3-chlorobenzyl)-6-hydroxy-1H-indazole] | 1000 to 10000 |
| CCCN(C)C(=O)c1cc2c(Cc3cccc(Cl)c3)n[nH]c2cc1O [Compound A42, 5-(N-Propyl-N-methylaminocarbonyl)-3-(3-chlorobenzyl)-6-hydroxy-1H-indazole] | 10 to 1000 |
| CCCCN(C)C(=O)c1cc2c(Cc3ccccc3C)n[nH]c2cc1O [Compound A43, 5-(N-Butyl-N-methylaminocarbonyl)-3-(2-methylbenzyl)-6-hydroxy-1H-indazole] | 1000 to 10000 |
| Cc1ccccc1Cc1n[nH]c2cc(O)c(C(=O)N(C)Cc3ccccc3)cc12 [Compound A44, 5-(N-Benzyl-N-methylaminocarbonyl)-3-(2-methylbenzyl)-6-hydroxy-1H-indazole] | 1000 to 10000 |
| COCCN(C)C(=O)c1cc2c(Cc3ccccc3C)n[nH]c2cc1O [Compound A45] | > 10000 |
| CCCN(C)C(=O)c1cc2c(Cc3cc(C)cc(F)c3)n[nH]c2cc1O [Compound A52, 5-(N-Propyl-N-methylaminocarbonyl)-3-(3-fluoro-5-methylbenzyl)-6-hydroxy-1H-indazole] | 1000 to 10000 |
| CCCCN(C)C(=O)c1cc2c(Cc3ccc(C)cc3)n[nH]c2cc1O [Compound A64, 5-(N-Butyl-N-methylaminocarbonyl)-3-(4-methylbenzyl)-6-hydroxy-1H-indazole] | 1000 to 10000 |
| CCc1ccc(Cc2n[nH]c3cc(O)c(C(=O)N(C)Cc4ccccc4)cc23)cc1 [Compound A71, 5-(N-Benzyl-N-methylaminocarbonyl)-3-(4-ethylbenzyl)-6-hydroxy-1H-indazole] | 1000 to 10000 |
| CCCN(C)C(=O)c1cc2c(Cc3ccc(C)c(C)c3)n[nH]c2cc1O [Compound A73, 5-(N-Propyl-N-methylaminocarbonyl)-3-(3,4-dimethylbenzyl)-6-hydroxy-1H-indazole] | 1000 to 10000 |
| Cc1cccc(Cc2n[nH]c3cc(O)c(C(=O)N(C)Cc4ccc5c(c4)OCCO5)cc23)c1 [Compound A101, 5-[N-(2,3-Dihydrobenzo-1,4-dioxin-6-ylmethyl)-N-methylaminocarbonyl]-3-(3-methylbenzyl)-6-hydroxy-1H-indazole] | 10 to 1000 |
| Cc1ccc(Cc2n[nH]c3cc(O)c(C(=O)N(C)c4ccccc4)cc23)cc1 [Compound A122, 5-(N-Phenyl-N-methylaminocarbonyl)-3-(4-methylbenzyl)-6-hydroxy-1H-indazole] | 10 to 1000 |
| COc1ccc(N(C)C(=O)c2cc3c(Cc4cccc(C)c4)n[nH]c3cc2O)cc1OC [Compound A145, 5-[N-(3,4-Dimethoxyphenyl)-N-methylaminocarbonyl]-3-(3-methylbenzyl)-6-hydroxy-1H-indazole] | 10 to 1000 |
| Cc1cccc(Cc2n[nH]c3cc(O)c(C(=O)N(C)c4cccc(OC(F)(F)F)c4)cc23)c1 [Compound A154, 5-[N-(3-Trifluoromethoxyphenyl)-N-methylaminocarbonyl]-3-(3-methylbenzyl)-6-hydroxy-1H-indazole] | 10 to 1000 |
| CC(=O)N1CCc2cc(N(C)C(=O)c3cc4c(Cc5cccc(C)c5)n[nH]c4cc3O)ccc21 [Compound A157, 5-[N-(1-Acetyl-2,3-dihydro-1H-indol-5-yl)-N-methylaminocarbonyl]-3-(3-methylbenzyl)-6-hydroxy-1H-indazole] | 10 to 1000 |
| COc1ccc(N(C)C(=O)c2cc3c(Cc4cccc(OC)c4)n[nH]c3cc2O)cc1 [Compound A160, 5-[N-(4-Methoxyphenyl)-N-methylaminocarbonyl]-3-(3-methoxybenzyl)-6-hydroxy-1H-indazole] | 10 to 1000 |
| COc1cccc(Cc2n[nH]c3cc(O)c(C(=O)N(C)c4ccc(CNS(C)(=O)=O)cc4)cc23)c1 [Compound A162, 5-[N-(4-Methylsulfonylaminomethylphenyl)-N-methylaminocarbonyl]-3-(3-methoxybenzyl)-6-hydroxy-1H-indazole] | 10 to 1000 |
| CCCc1n[nH]c2cc(O)c(C(=O)N(C)c3ccc(OC)c(OC)c3)cc12 [Compound A174, 5-[N-(3,4-Dimethoxyphenyl)-N-methylaminocarbonyl]-3-propyl-6-hydroxy-1H-indazole] | 10 to 1000 |
| CCCc1n[nH]c2cc(O)c(C(=O)N(C)c3ccc4c(c3)OCO4)cc12 [Compound A175, 5-[N-(Benzo-1,3-dioxol-5-yl)-N-methylaminocarbonyl]-3-propyl-6-hydroxy-1H-indazole] | 10 to 1000 |
